Values after ≈ are worked out from the molar mass of the structure shown. Where two headings read alike, the source gives them in different places. Residues, ends and D or L forms follow the SMILES beside them.
Legend:
BH1CC = experiment: microbe, parasite or virus in culture; type: cell-based, Staphylococcus aureus; conditions: 18 h
Protocol: (§1) Strains used in the study were isolates of methicillin-resistant Staphylococcus aureus (MRSA); USA300 LAC, BH1CC ([O’Neill et al., 2007]), methicillin-sensitive S. aureus (MSSA); SH1000 ([Horsburgh et al., 2002]) and BH48 ([O’Neill et al., 2007]); and Pseudomonas aeruginosa PAO1 (ATCC […]). Clinical isolates were obtained from a previous collection of isolates of infected wounds. Bacteria were grown aerobically at 37°C with shaking at 200 rpm in Brain Heart Infusion (BHI, Oxoid, Ireland). Selective media, Mannitol Salt Agar (SLS, Ireland) and MacConkey agar (SLS, Ireland), for re-isolation of bacterial strains from mixed species biofilms were used. Bolton Broth (Fannin, Ireland) supplemented with 50% bovine heparin plasma (TebuBio, UK), and 5% laked horse blood (Sigma-Aldrich, Ireland) was used to mimic in vivo conditions for static antibiofilm testing. For dynamic biofilm growth Simulated Wound Fluid (SWF) prepared as described previously with slight modification, 3% v/v fetal bovine serum in maximum recovery diluent (Merck, Ireland) was used ([Barbour et al., 2016]).
(§2) Minimum inhibitory concentration (MIC) was determined aerobically using the broth microdilution assay as recommended by the Clinical and Laboratory Standards Institute (CLSI) ([CLSI, 2018]). Briefly, 2-fold serial dilutions of the antimicrobial peptides of interest and conventional antibiotics were prepared in Mueller-Hinton broth (MHB) (Merck, Ireland) in a 96-well round bottom polypropylene plate (ThermoFisher, Ireland). Diluted bacterial suspensions in sterile PBS (Sigma, Ireland) were added to each well resulting in a final cell density of approximately 10^5 colony forming units (CFU)/mL. Microplates were incubated statically for 18 h at 37°C. In each assay, inoculated medium without antimicrobials and uninoculated medium served as growth and sterility controls, respectively. Conventional antibiotics, gentamicin (Merck, Ireland) and mupirocin (SLS, UK), were tested as comparator antimicrobials. The MIC value was defined as the lowest antimicrobial concentration showing no visible growth relative to positive (no antimicrobial agent) and negative controls (BHI alone). Experiments were conducted in triplicate, and independent replicates were performed three times to yield n = 3.

BH48 = experiment: microbe, parasite or virus in culture; type: cell-based, Staphylococcus aureus; conditions: 18 h
Protocol: as §1, §2

SH1000 = experiment: microbe, parasite or virus in culture; type: cell-based, Staphylococcus aureus
Protocol: as §1, §2

USA300 = experiment: microbe, parasite or virus in culture; type: cell-based, Staphylococcus aureus
Protocol: as §1, §2

PAO1 = experiment: microbe, parasite or virus in culture; type: cell-based, Pseudomonas aeruginosa
Protocol: as §1, §2

HaCaT = experiment: MTT cell viability; type: cell-based, human; conditions: 24 h, 37°C, 5% CO2, ethanol control
HUVEC = experiment: MTT cell viability; type: cell-based, human; conditions: 24 h, 37°C, 5% CO2, ethanol control
THP-1 = type: cell-based, human; conditions: THP-1; 24 h, 37°C, 5% CO2; ethanol control
Protocol: Sigma-Aldrich, Ireland). […] At 90% confluence, cells were centrifuged and diluted to a 1:5 ratio with complete RPMI. THP-1 cells were seeded in a 96 well plate at a density of 1 × 10^5 cells/mL with increasing concentrations of D-Bac8c^2,5 Leu. Cells were incubated for 24 h at 37°C with 5% CO2, 95% humidity. […] The absorbance was measured at 595 nm in a microplate spectrophotometer. Cell viability was calculated as a percentage of a control treated with PBS. Two technical replicates were performed each day on three independent days.

S. aureus strains = type: cell-based, Staphylococcus aureus; conditions: 2 MRSA and 2 MSSA strains, summed up in text
Protocol: as §1
Minimum inhibitory concentration (MIC) was determined aerobically using the broth microdilution assay as recommended by the Clinical and Laboratory Standards Institute (CLSI) ([CLSI, 2018]). […]

[1] = Staphylococcus aureus, BH1CC (MRSA), MHB, about 10^5 CFU/mL, 37°C, n = 3, read-out: MIC
[2] = Staphylococcus aureus, BH48 (MSSA), MHB, about 10^5 CFU/mL, 37°C, n = 3, read-out: MIC
[3] = Staphylococcus aureus, SH1000 (MSSA), MHB, about 10^5 CFU/mL, 18 h, 37°C, n = 3, read-out: MIC
[4] = Staphylococcus aureus, USA300 (MRSA), MHB, about 10^5 CFU/mL, 18 h, 37°C, n = 3, read-out: MIC
[5] = Pseudomonas aeruginosa, PAO1, MHB, about 10^5 CFU/mL, 18 h, 37°C, n = 3, read-out: MIC
[6] = BH1CC (MRSA), MHB, about 10^5 CFU/mL, 37°C, n = 3
[7] = BH48 (MSSA), MHB, about 10^5 CFU/mL, 37°C, n = 3
[8] = SH1000 (MSSA), MHB, about 10^5 CFU/mL, 18 h, 37°C, n = 3
[9] = USA300 (MRSA), MHB, about 10^5 CFU/mL, 18 h, 37°C, n = 3
[10] = PAO1, MHB, about 10^5 CFU/mL, 18 h, 37°C, n = 3

Compound `CC[C@H](C)[C@H](NC(=O)[C@H](CCCNC(=N)N)NC(=O)[C@H](Cc1ccccc1)NC(=O)[C@H](CCCNC(=N)N)NC(=O)[C@@H](N)CCCCN)C(=O)N[C@@H](CCCNC(=N)N)C(=O)N[C@H](C(=O)N[C@@H](CCCNC(=N)N)C(=O)N[C@H](C(N)=O)C(C)C)C(C)C` [1,037] (H-KRFRIRVRV-NH2) has an MIC (BH1CC) of 128 µg/mL (≈ 104 µM), an MIC (BH48) of 128 µg/mL (≈ 104 µM) and an MIC (SH1000; SH1000, 18 h) of 128 µg/mL (≈ 104 µM). For the same compound, the MIC (USA300; USA300, 18 h) was 128 µg/mL (≈ 104 µM) and the MIC (PAO1; PAO1, 18 h) was 64 µg/mL (≈ 52.1 µM).
In the case of `CC(C)[C@H](NC(=O)[C@H](CCCCN)NC(=O)[C@H](CCCCN)NC(=O)[C@@H]1CCCN1C(=O)[C@H](CCCCN)NC(=O)[C@@H](NC(=O)[C@@H]1CCCN1C(=O)[C@H](CCCCN)NC(=O)[C@@H](NC(=O)[C@H](CCCCN)NC(=O)[C@H](CCCCN)NC(=O)[C@H](CO)NC(=O)[C@@H]1CCCN1)[C@@H](C)O)C(C)C)C(=O)N[C@@H](C)C(N)=O` [DRGN-1] (H-PSKKTKPVKPKKVA-NH2), the MIC (BH1CC) is reported as over 400 µg/mL, the MIC (BH48) is reported as over 400 µg/mL and the MIC (SH1000; SH1000, 18 h) is reported as over 400 µg/mL. The MIC (USA300; USA300, 18 h) was over 400 µg/mL and the MIC (PAO1; PAO1, 18 h) was over 400 µg/mL.
In the case of `CCO` [Ethanol, reference compound], the “IC50 (50% cell viability), MTT” value (HaCaT) is reported as 1.2%, the “IC50 (50% cell viability), MTT” value (HUVEC) is reported as 0.4% and the “IC50 (50% cell viability), MTT” value (THP-1) is reported as 1%.
For `CC(=O)O[C@H]1C[C@@]2(C)[C@@H](C[C@@H](O)[C@H]3[C@@]4(C)CC[C@@H](O)[C@@H](C)[C@@H]4CC[C@@]32C)/C1=C(\CCC=C(C)C)C(=O)O` [Fusidic acid], the MIC (BH1CC; [1]) was 2 µg/mL (≈ 3.87 µM), the MIC (BH48; [2]) was 4 µg/mL (≈ 7.74 µM) and the MIC (SH1000; [3]) was 0.06 µg/mL (≈ 0.116 µM). For the same compound, the MIC (USA300; [4]) was 0.03 µg/mL (≈ 0.0581 µM) and the MIC (PAO1; [5]) was over 512 µg/mL.
In the case of `CNC(C)C1CCC(N)C(OC2C(N)CC(N)C(OC3OCC(C)(O)C(NC)C3O)C2O)O1` (stereo not drawn) [Gentamicin, gentamicin], the MIC (BH1CC; [1]) is reported as 32 µg/mL (≈ 67 µM), the MIC (BH48; [2]) is reported as 0.25 µg/mL (≈ 0.523 µM) and the MIC (SH1000; [3]) is reported as 0.25 µg/mL (≈ 0.523 µM). For the same compound, the MIC (USA300; [4]) was 0.5 µg/mL (≈ 1.05 µM) and the MIC (PAO1; [5]) was 1 µg/mL (≈ 2.09 µM).
For `CC[C@H](C)[C@H](NC(=O)[C@H](CCCNC(=N)N)NC(=O)[C@@H](NC(=O)[C@H](C)NC(=O)[C@@H](NC(=O)[C@@H](NC(=O)[C@H](CC(C)C)NC(=O)[C@H](CCCNC(=N)N)NC(=O)[C@@H](N)C(C)C)[C@@H](C)CC)C(C)C)C(C)C)C(=O)N[C@@H](Cc1c[nH]c2ccccc12)C(=O)N[C@@H](CCCNC(=N)N)C(=O)N[C@@H](CCCNC(=N)N)C(N)=O` [IDR-1018] (H-VRLIVAVRIWRR-NH2), the MIC (BH1CC; [6]) was 128 µg/mL (≈ 83.3 µM), the MIC (BH48; [7]) was 128 µg/mL (≈ 83.3 µM) and the MIC (SH1000; [8]) was 64 µg/mL (≈ 41.7 µM). For the same compound, the MIC (USA300; [9]) was 64 µg/mL (≈ 41.7 µM) and the MIC (PAO1; [10]) was 64 µg/mL (≈ 41.7 µM).
`C/C(=C\C(=O)OCCCCCCCCC(=O)O)C[C@@H]1OC[C@H](C[C@@H]2O[C@H]2[C@@H](C)[C@H](C)O)[C@@H](O)[C@H]1O` [Mupirocin, mupirocin] gave an MIC (BH1CC; [1]) of 2 µg/mL (≈ 3.99 µM), an MIC (BH48; [2]) of 0.03 µg/mL (≈ 0.0599 µM) and an MIC (SH1000; [3]) of 0.03 µg/mL (≈ 0.0599 µM). It also gave an MIC (USA300; [4]) of 0.06 µg/mL (≈ 0.12 µM) and an MIC (PAO1; [5]) of over 2050 µg/mL.
In the case of `CC[C@H](C)[C@H](NC(=O)CNC(=O)[C@H](CCCCN)NC(=O)[C@H](Cc1ccc(O)cc1)NC(=O)[C@H](CS)NC(=O)[C@@H](NC(=O)[C@H](CCCCN)NC(=O)[C@H](Cc1c[nH]c2ccccc12)NC(=O)[C@H](CS)NC(=O)[C@H](Cc1ccccc1)NC(=O)[C@@H](N)CCCNC(=N)N)C(C)C)C(=O)N[C@@H](CS)C(=O)N[C@@H](Cc1ccccc1)C(=O)N[C@@H](CCCCN)C(=O)N[C@@H](CCCCN)C(=O)N[C@@H](CS)C(=O)N[C@@H](CCCCN)C(N)=O` [RP557] (H-RFCWKVCYKGICFKKCK-NH2; N-terminus assumed), the MIC (BH1CC; [6]) is reported as 16 µg/mL (≈ 7.48 µM), the MIC (BH48; [7]) is reported as 16 µg/mL (≈ 7.48 µM) and the MIC (SH1000; [8]) is reported as 16 µg/mL (≈ 7.48 µM). The MIC (USA300; [9]) was 16 µg/mL (≈ 7.48 µM), the MIC (PAO1; [10]) was 8 µg/mL (≈ 3.74 µM) and the “MIC against S. aureus strains” value (S. aureus strains) was 16 µg/mL (≈ 7.48 µM).
